The numbers were not newly measured in patent US20140093563A1, “FEBUXOSTAT COMPOSITIONS” (RANBAXY LABORATORIES LIMITED, priority 2011, published 2014), which cites them from elsewhere.

For the molecule `Cc1nc(-c2ccc(OCC(C)C)c(C#N)c2)sc1C(=O)O` [febuxostat, 2-(3-cyano-4-isobutyloxyphenyl)-4-methyl-5-thiazolecarboxylic acid], the “Solubility (BCS)” value is “low solubility”.
